Data: patent US10004701B2, “Methods and compositions for treating infection” (UNIVERSITY OF ROCHESTER, priority 2012, dated 2018)
Structures can show the parent of a compound that is named as a salt. Where two headings read alike, the source gives them in different places.

Columns and labels:
Assay in all cases: AK assay 384-well format, Prestwick library screening
E. faecium = assay type: cell-based, Enterococcus faecium; settings: 50 μM final drug concentration; for fold induction at 50 µM: Enterococcus faecium, 3 h; for AK-based Prestwick Library Screening Results, E. faecium (fold increase in extracellular AK activity): planktonic
[1] = tested on: S. aureus strain USA300-0114; assay type: cell-based, Staphylococcus aureus; settings: 50 μM final drug concentration; for fold induction at 50 µM: Staphylococcus aureus, USA300, 3 h; for AK-based Prestwick Library Screening Results, S. aureus (fold increase in extracellular AK activity): planktonic
K. pneumoniae = assay type: cell-based, Klebsiella pneumoniae; settings: 50 μM final drug concentration; for fold induction at 50 µM: Klebsiella pneumoniae, 3 h; for AK-based Prestwick Library Screening Results, K. pneumoniae (fold increase in extracellular AK activity): planktonic
[2] = tested on: A. baumannii strain 98-37-09; assay type: cell-based, Acinetobacter baumannii; settings: 50 μM final drug concentration; for fold induction at 50 µM: Acinetobacter baumannii, 983709, 3 h; for AK-based Prestwick Library Screening Results, A. baumannii (fold increase in extracellular AK activity): planktonic
P. aeruginosa = assay type: cell-based, Pseudomonas aeruginosa; settings: 50 μM final drug concentration; for fold induction at 50 µM: Pseudomonas aeruginosa, 3 h; for AK-based Prestwick Library Screening Results, P. aeruginosa (fold increase in extracellular AK activity): planktonic
E. cloacae = assay type: cell-based, Enterobacter cloacae; settings: 50 μM final drug concentration; for fold induction at 50 µM: Enterobacter cloacae, 3 h; for AK-based Prestwick Library Screening Results, E. cloacae (fold increase in extracellular AK activity): planktonic
E. coli = assay type: cell-based, Escherichia coli; settings: 50 μM final drug concentration; for fold induction at 50 µM: Escherichia coli, 3 h; for AK-based Prestwick Library Screening Results, E. coli (fold increase in extracellular AK activity): planktonic
[3] = cutoff for positive 3-fold increase
[4] = cutoff for positive-scoring molecules 3-fold increase, read-out: AK-based Prestwick Library Screening Results, E. faecium (fold increase in extracellular AK activity)
[5] = cutoff for positive-scoring molecules 3-fold increase, read-out: AK-based Prestwick Library Screening Results, S. aureus (fold increase in extracellular AK activity)
[6] = cutoff for positive-scoring molecules 3-fold increase, read-out: AK-based Prestwick Library Screening Results, K. pneumoniae (fold increase in extracellular AK activity)
[7] = cutoff for positive-scoring molecules 3-fold increase, read-out: AK-based Prestwick Library Screening Results, A. baumannii (fold increase in extracellular AK activity)
[8] = cutoff for positive-scoring molecules 3-fold increase, read-out: AK-based Prestwick Library Screening Results, P. aeruginosa (fold increase in extracellular AK activity)
[9] = cutoff for positive-scoring molecules 3-fold increase, read-out: AK-based Prestwick Library Screening Results, E. cloacae (fold increase in extracellular AK activity)
[10] = cutoff for positive-scoring molecules 3-fold increase, read-out: AK-based Prestwick Library Screening Results, E. coli (fold increase in extracellular AK activity)

`O=c1[nH]c2ccccc2n1CCCN1CCC(n2c(=O)[nH]c3cc(Cl)ccc32)CC1` [Domperidone] was tested, and the fold induction at 50 µM (E. faecium; planktonic E. faecium, cutoff for positive-scoring molecules 3-fold increase, read-out: AK-based Prestwick Library Screening Results, E. faecium (increase in extracellular AK activity)) was 0.9, the fold induction at 50 µM ([1]; planktonic S. aureus, cutoff for positive-scoring molecules 3-fold increase, read-out: AK-based Prestwick Library Screening Results, S. aureus (increase in extracellular AK activity)) was 0.8 and the fold induction at 50 µM (K. pneumoniae; planktonic K. pneumoniae, cutoff for positive-scoring molecules 3-fold increase, read-out: AK-based Prestwick Library Screening Results, K. pneumoniae (increase in extracellular AK activity)) was 0.6. It also gave a fold induction at 50 µM ([2]; planktonic A. baumannii, cutoff for positive-scoring molecules 3-fold increase, read-out: AK-based Prestwick Library Screening Results, A. baumannii (increase in extracellular AK activity)) of 0.7, a fold induction at 50 µM (P. aeruginosa; planktonic P. aeruginosa, cutoff for positive-scoring molecules 3-fold increase, read-out: AK-based Prestwick Library Screening Results, P. aeruginosa (increase in extracellular AK activity)) of 0.6 and a fold induction at 50 µM (E. cloacae; planktonic E. cloacae, cutoff for positive-scoring molecules 3-fold increase, read-out: AK-based Prestwick Library Screening Results, E. cloacae (increase in extracellular AK activity)) of 0.8. For the same molecule, the fold induction at 50 µM (E. coli; planktonic E. coli, cutoff for positive-scoring molecules 3-fold increase, read-out: AK-based Prestwick Library Screening Results, E. coli (increase in extracellular AK activity)) was 0.6.
With `C=C1c2c(Cl)ccc(O)c2C(=O)C2=C(O)[C@]3(O)C(=O)C(C(N)=O)=C(O)[C@@H](N(C)C)[C@@H]3[C@@H](O)[C@H]12.O=C(O)c1cc(S(=O)(=O)O)ccc1O` [Meclocycline sulfosalicylate] the “AK-based Prestwick Library Screening Results, E. faecium (fold increase in extracellular AK activity)” value (E. faecium; [3]) was 1.0, the “AK-based Prestwick Library Screening Results, S. aureus (fold increase in extracellular AK activity)” value [1, 3] was 4.3 and the “AK-based Prestwick Library Screening Results, K. pneumoniae (fold increase in extracellular AK activity)” value (K. pneumoniae; [3]) was 0.3. For the same molecule, the “AK-based Prestwick Library Screening Results, A. baumannii (fold increase in extracellular AK activity)” value [2, 3] was 3.2, the “AK-based Prestwick Library Screening Results, P. aeruginosa (fold increase in extracellular AK activity)” value (P. aeruginosa; [3]) was 0.5 and the “AK-based Prestwick Library Screening Results, E. cloacae (fold increase in extracellular AK activity)” value (E. cloacae; [3]) was 2.1. For the same molecule, the “AK-based Prestwick Library Screening Results, E. coli (fold increase in extracellular AK activity)” value (E. coli; [3]) was 0.8.
For Retrorsine, the “AK-based Prestwick Library Screening Results, E. faecium (fold increase in extracellular AK activity)” value (E. faecium; […]) was 1.0, the “AK-based Prestwick Library Screening Results, S. aureus (fold increase in extracellular AK activity)” value ([1]; […]) was 1.2 and the “AK-based Prestwick Library Screening Results, K. pneumoniae (fold increase in extracellular AK activity)” value (K. pneumoniae; […]) was 1.2. For the same molecule, the “AK-based Prestwick Library Screening Results, A. baumannii (fold increase in extracellular AK activity)” value ([2]; […]) was 1.2, the “AK-based Prestwick Library Screening Results, P. aeruginosa (fold increase in extracellular AK activity)” value (P. aeruginosa; […]) was 1.2 and the “AK-based Prestwick Library Screening Results, E. cloacae (fold increase in extracellular AK activity)” value (E. cloacae; […]) was 1.5. For the same molecule, the “AK-based Prestwick Library Screening Results, E. coli (fold increase in extracellular AK activity)” value (E. coli; […]) was 1.3.
`C=C1C/C(=C/C)C(=O)O[C@@H]2CCN3CC=C(COC(=O)[C@]1(C)O)[C@H]23` [Seneciphylline] showed a fold induction at 50 µM (E. faecium; planktonic E. faecium, […], read-out: AK-based Prestwick Library Screening Results, E. faecium (increase in extracellular AK activity)) of 0.9, a fold induction at 50 µM ([1]; planktonic S. aureus, […], read-out: AK-based Prestwick Library Screening Results, S. aureus (increase in extracellular AK activity)) of 0.8 and a fold induction at 50 µM (K. pneumoniae; planktonic K. pneumoniae, […], read-out: AK-based Prestwick Library Screening Results, K. pneumoniae (increase in extracellular AK activity)) of 0.7. It also gave a fold induction at 50 µM ([2]; planktonic A. baumannii, […], read-out: AK-based Prestwick Library Screening Results, A. baumannii (increase in extracellular AK activity)) of 0.8, a fold induction at 50 µM (P. aeruginosa; planktonic P. aeruginosa, […], read-out: AK-based Prestwick Library Screening Results, P. aeruginosa (increase in extracellular AK activity)) of 0.8 and a fold induction at 50 µM (E. cloacae; planktonic E. cloacae, […], read-out: AK-based Prestwick Library Screening Results, E. cloacae (increase in extracellular AK activity)) of 1.2. The fold induction at 50 µM (E. coli; planktonic E. coli, […], read-out: AK-based Prestwick Library Screening Results, E. coli (increase in extracellular AK activity)) was 0.9.
For `CN(C)CCCN1c2ccccc2Sc2ccccc21` [Promazine hydrochloride], the fold induction at 50 µM (E. faecium; [4]) was 1, the fold induction at 50 µM [1, 5] was 1.4 and the fold induction at 50 µM (K. pneumoniae; [6]) was 0.8. The fold induction at 50 µM [2, 7] was 0.9, the fold induction at 50 µM (P. aeruginosa; [8]) was 1.1 and the fold induction at 50 µM (E. cloacae; [9]) was 1.7. It also gave a fold induction at 50 µM (E. coli; [10]) of 1.2.
Vitamin K2 was tested, and the “AK-based Prestwick library screening result, E. faecium (fold increase in extracellular AK activity)” value (E. faecium; planktonic E. faecium, positive cutoff 3-fold increase) was 1.0, the “AK-based Prestwick library screening result, S. aureus (fold increase in extracellular AK activity)” value ([1]; planktonic S. aureus, positive cutoff 3-fold increase) was 1.8 and the “AK-based Prestwick library screening result, K. pneumoniae (fold increase in extracellular AK activity)” value (K. pneumoniae; planktonic K. pneumoniae, positive cutoff 3-fold increase) was 0.8. The “AK-based Prestwick library screening result, A. baumannii (fold increase in extracellular AK activity)” value ([2]; planktonic A. baumannii, positive cutoff 3-fold increase) was 1.1, the “AK-based Prestwick library screening result, P. aeruginosa (fold increase in extracellular AK activity)” value (P. aeruginosa; planktonic P. aeruginosa, positive cutoff 3-fold increase) was 1.1 and the “AK-based Prestwick library screening result, E. cloacae (fold increase in extracellular AK activity)” value (E. cloacae; planktonic E. cloacae, positive cutoff 3-fold increase) was 1.6. For the same molecule, the “AK-based Prestwick library screening result, E. coli (fold increase in extracellular AK activity)” value (E. coli; planktonic E. coli, positive cutoff 3-fold increase) was 0.9.
Molecule `Cc1cc(CC(=O)O)n(C)c1C(=O)c1ccc(Cl)cc1` [Zomepirac sodium salt] has a fold induction at 50 µM (E. faecium; [4]) of 1.1, a fold induction at 50 µM [1, 5] of 0.9 and a fold induction at 50 µM (K. pneumoniae; [6]) of 1. The fold induction at 50 µM [2, 7] was 1.1, the fold induction at 50 µM (P. aeruginosa; [8]) was 0.9 and the fold induction at 50 µM (E. cloacae; [9]) was 1.6. For the same molecule, the fold induction at 50 µM (E. coli; [10]) was 1.1.
With `COc1cc(/C=C/C(=O)N2CCC=CC2=O)cc(OC)c1OC` [Piperlongumine] the “AK-based Prestwick Library Screening Results, E. faecium (fold increase in extracellular AK activity)” value (E. faecium; […]) was 1.0, the “AK-based Prestwick Library Screening Results, S. aureus (fold increase in extracellular AK activity)” value ([1]; […]) was 1.0 and the “AK-based Prestwick Library Screening Results, K. pneumoniae (fold increase in extracellular AK activity)” value (K. pneumoniae; […]) was 1.0. For the same molecule, the “AK-based Prestwick Library Screening Results, A. baumannii (fold increase in extracellular AK activity)” value ([2]; […]) was 1.0, the “AK-based Prestwick Library Screening Results, P. aeruginosa (fold increase in extracellular AK activity)” value (P. aeruginosa; […]) was 1.1 and the “AK-based Prestwick Library Screening Results, E. cloacae (fold increase in extracellular AK activity)” value (E. cloacae; […]) was 1.6. The “AK-based Prestwick Library Screening Results, E. coli (fold increase in extracellular AK activity)” value (E. coli; […]) was 1.2.
`CCc1c(C)[nH]c2c1C(=O)C(CN1CCOCC1)CC2` (stereo not shown) [Molindone hydrochloride] was tested, and the fold induction at 50 µM (E. faecium; planktonic E. faecium, positive cutoff 3-fold increase, read-out: AK-based Prestwick library screening result, E. faecium (fold increase in extracellular AK activity)) was 1, the fold induction at 50 µM ([1]; planktonic S. aureus, positive cutoff 3-fold increase, read-out: AK-based Prestwick library screening result, S. aureus (fold increase in extracellular AK activity)) was 1.1 and the fold induction at 50 µM (K. pneumoniae; planktonic K. pneumoniae, positive cutoff 3-fold increase, read-out: AK-based Prestwick library screening result, K. pneumoniae (fold increase in extracellular AK activity)) was 1. For the same molecule, the fold induction at 50 µM ([2]; planktonic A. baumannii, positive cutoff 3-fold increase, read-out: AK-based Prestwick library screening result, A. baumannii (fold increase in extracellular AK activity)) was 1.1, the fold induction at 50 µM (P. aeruginosa; planktonic P. aeruginosa, positive cutoff 3-fold increase, read-out: AK-based Prestwick library screening result, P. aeruginosa (fold increase in extracellular AK activity)) was 0.9 and the fold induction at 50 µM (E. cloacae; planktonic E. cloacae, positive cutoff 3-fold increase, read-out: AK-based Prestwick library screening result, E. cloacae (fold increase in extracellular AK activity)) was 1.7. For the same molecule, the fold induction at 50 µM (E. coli; planktonic E. coli, positive cutoff 3-fold increase, read-out: AK-based Prestwick library screening result, E. coli (fold increase in extracellular AK activity)) was 1.1.
Molecule `Nc1ccc(S(=O)(=O)Nc2nccs2)cc1` [Sulfathiazole] has a fold induction at 50 µM (E. faecium; 384-well format, cutoff for positive-scoring molecules 3-fold increase, read-out: AK-based Prestwick Library Screening Results, E. faecium (increase in extracellular AK activity)) of 0.9, a fold induction at 50 µM ([1]; 384-well format, cutoff for positive-scoring molecules 3-fold increase, read-out: AK-based Prestwick Library Screening Results, S. aureus (increase in extracellular AK activity)) of 0.6 and a fold induction at 50 µM (K. pneumoniae; 384-well format, cutoff for positive-scoring molecules 3-fold increase, read-out: AK-based Prestwick Library Screening Results, K. pneumoniae (increase in extracellular AK activity)) of 0.6. For the same molecule, the fold induction at 50 µM ([2]; 384-well format, cutoff for positive-scoring molecules 3-fold increase, read-out: AK-based Prestwick Library Screening Results, A. baumannii (increase in extracellular AK activity)) was 1, the fold induction at 50 µM (P. aeruginosa; 384-well format, cutoff for positive-scoring molecules 3-fold increase, read-out: AK-based Prestwick Library Screening Results, P. aeruginosa (increase in extracellular AK activity)) was 0.6 and the fold induction at 50 µM (E. cloacae; 384-well format, cutoff for positive-scoring molecules 3-fold increase, read-out: AK-based Prestwick Library Screening Results, E. cloacae (increase in extracellular AK activity)) was 0.7. The fold induction at 50 µM (E. coli; 384-well format, cutoff for positive-scoring molecules 3-fold increase, read-out: AK-based Prestwick Library Screening Results, E. coli (increase in extracellular AK activity)) was 0.7.
